In ChEMBL document CHEMBL1201862, “PubChem BioAssay data set” (2004):
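These data come from cells grown in 96-well plates and exposed to compound for 48 hours at five concentrations. At the GI50, growth is halved.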 Calls of active or inactive are those of the source. Rule as the data show it: active = GI50 up to about 1.1 µM and inactive = higher.

Tests used:
Assay in all cases: DTP human tumour cell line panel, 48 h
A498 = tested on: A498
ACHN = tested on: ACHN
CCRF-CEM = tested on: CCRF-CEM
EKVX = tested on: EKVX
HCC 2998 = tested on: HCC 2998
HL-60 = tested on: HL-60
HT-29 = tested on: HT-29
K562 = tested on: K562
KM12 = tested on: KM12
MCF7 = tested on: MCF7
NCI-H23 = tested on: NCI-H23
NCI-H522 = tested on: NCI-H522
OVCAR-3 = tested on: OVCAR-3
OVCAR-4 = tested on: OVCAR-4
PC-3 = tested on: PC-3
SK-MEL-28 = tested on: SK-MEL-28
SN12C = tested on: SN12C
SNB-75 = tested on: SNB-75
T47D = tested on: T47D
UO-31 = tested on: UO-31

Structure (SMILES) | GI50 (A498) | GI50 (ACHN) | GI50 (CCRF-CEM) | GI50 (EKVX) | GI50 (HCC 2998) | GI50 (HL-60) | GI50 (HT-29) | GI50 (K562) | GI50 (KM12) | GI50 (MCF7) | GI50 (NCI-H23) | GI50 (NCI-H522) | GI50 (OVCAR-3) | GI50 (OVCAR-4) | GI50 (PC-3) | GI50 (SK-MEL-28) | GI50 (SN12C) | GI50 (SNB-75) | GI50 (T47D) | GI50 (UO-31)
O=C(C[n+]1ccccc1)N/N=C(\C(=O)NC1=C(Cl)C(=O)c2ccccc2C1=O)c1c(O)c2ccc(O)cc2oc1=O | 19.9 µM (inactive) | 5.11 µM (inactive) | 4.94 µM (inactive) | 12.9 µM (inactive) | 3.4 µM (inactive) | 3.43 µM (inactive) | 3.08 µM (inactive) | 1.91 µM (inactive) | 4.85 µM (inactive) | 3.48 µM (inactive) | 2.52 µM (inactive) | 2.07 µM (inactive) | 3.37 µM (inactive) | 3.08 µM (inactive) | 2.77 µM (inactive) | 2.94 µM (inactive) | 4.44 µM (inactive) | 6.5 µM (inactive) | 5.56 µM (inactive) | 12.2 µM (inactive)
COc1ccc(C(C#N)NCCCCCCNC(C#N)c2ccc(OC)cc2)cc1 (stereo not given) | > 100 µM (inactive) | > 100 µM (inactive) | > 100 µM (inactive) | > 100 µM (inactive) | > 100 µM (inactive) | > 100 µM (inactive) | > 100 µM (inactive) | > 100 µM (inactive) | > 100 µM (inactive) | > 100 µM (inactive) | > 100 µM (inactive) | > 100 µM (inactive) | > 100 µM (inactive) | > 100 µM (inactive) | > 100 µM (inactive) | > 100 µM (inactive) | > 100 µM (inactive) | > 100 µM (inactive) | > 100 µM (inactive) | > 100 µM (inactive)
O=C(NCCCNCCN1C(=O)c2cccc3cc([N+](=O)[O-])cc(c23)C1=O)c1cc(-c2ccccc2)nc2ccccc12 | 4.2 µM (inactive) | 0.991 µM (active) | 0.966 µM (active) | 7.52 µM (inactive) | 1.49 µM (inactive) | 1.76 µM (inactive) | 0.971 µM (active) | 0.836 µM (active) | 4.4 µM (inactive) | 2.17 µM (inactive) | 3.02 µM (inactive) | 1.62 µM (inactive) | 5.87 µM (inactive) | 3.2 µM (inactive) | 3.61 µM (inactive) | 1.85 µM (inactive) | 3.16 µM (inactive) | 3.62 µM (inactive) | 8.07 µM (inactive) | 2.52 µM (inactive)
CCCC/C=C1\CCC(CN2CCOCC2)C1=O (stereo not given) | 14.1 µM (inactive) | 3.59 µM (inactive) | 0.724 µM (active) | 11.2 µM (inactive) | 9.08 µM (inactive) | 1.57 µM (inactive) | 3.48 µM (inactive) | 1.19 µM (inactive) | 1.8 µM (inactive) | 1.53 µM (inactive) | 5.7 µM (inactive) | 0.809 µM (active) | 5.32 µM (inactive) | 11.7 µM (inactive) | 13.2 µM (inactive) | 3.24 µM (inactive) | 4.57 µM (inactive) | 2.27 µM (inactive) | 5.19 µM (inactive) | 4.22 µM (inactive)
CC(C)(C)NC(=O)CCC1C(C(=O)NC(C)(C)C)C2(Cl)C(Cl)=C(Cl)C1(Cl)C2(Cl)Cl (stereo not given) | > 100 µM (inactive) | > 100 µM (inactive) | > 100 µM (inactive) | > 100 µM (inactive) | > 100 µM (inactive) | > 100 µM (inactive) | > 100 µM (inactive) | > 100 µM (inactive) | > 100 µM (inactive) | > 100 µM (inactive) | > 100 µM (inactive) | > 100 µM (inactive) | > 100 µM (inactive) | > 100 µM (inactive) | > 100 µM (inactive) | > 100 µM (inactive) | > 100 µM (inactive) | > 100 µM (inactive) | > 100 µM (inactive) | > 100 µM (inactive)
O=CNNC(=O)CSc1nc2ccc(I)cc2c(=O)n1Cc1ccccc1 | 37.9 µM (inactive) | 34.8 µM (inactive) | 23.7 µM (inactive) | 23.9 µM (inactive) | 26.8 µM (inactive) | 47.5 µM (inactive) | 34.9 µM (inactive) | 8.79 µM (inactive) | 33.4 µM (inactive) | 37.2 µM (inactive) | 36.7 µM (inactive) | 20.9 µM (inactive) | 21.8 µM (inactive) | 40.4 µM (inactive) | 39 µM (inactive) | 79.8 µM (inactive) | 28.4 µM (inactive) | 45 µM (inactive) | 33.4 µM (inactive) | 1.72 µM (inactive)
C#C[C@]1(O)CC[C@H]2[C@@H]3CCC4=C/C(=N\OCCN(CC)CC)CC[C@]4(C)[C@H]3CC[C@@]21C | 10.8 µM (inactive) | 6.7 µM (inactive) | 3.33 µM (inactive) | 6.87 µM (inactive) | 10.2 µM (inactive) | 0.586 µM (active) | 3.74 µM (inactive) | 3.09 µM (inactive) | 2.92 µM (inactive) | 4.29 µM (inactive) | 5.22 µM (inactive) | 2.42 µM (inactive) | 2.87 µM (inactive) | 12.5 µM (inactive) | 3.18 µM (inactive) | 7.66 µM (inactive) | 9.12 µM (inactive) | 3.05 µM (inactive) | 6.3 µM (inactive) | 3.72 µM (inactive)
COC(=O)c1c2c(cc3c1CCC3)CCC2 | 28.6 µM (inactive) | > 100 µM (inactive) | 20.1 µM (inactive) | 39.6 µM (inactive) | 59.4 µM (inactive) | 15.5 µM (inactive) | 26.3 µM (inactive) | 29.6 µM (inactive) | 65.3 µM (inactive) | 38.7 µM (inactive) | 80.7 µM (inactive) | 46.6 µM (inactive) | > 100 µM (inactive) | 82.2 µM (inactive) | 44.7 µM (inactive) | 53.6 µM (inactive) | > 100 µM (inactive) | 28.4 µM (inactive) | 13.3 µM (inactive) | 72.8 µM (inactive)
COC(=O)/C=C1/OC(c2ccccc2)=C(Br)C1=O | 70.8 µM (inactive) | 46.8 µM (inactive) | 25.8 µM (inactive) | > 100 µM (inactive) | 56.8 µM (inactive) | 35.2 µM (inactive) | 20.1 µM (inactive) | 21.7 µM (inactive) | 55.5 µM (inactive) | 34.3 µM (inactive) | 57.5 µM (inactive) | 25.1 µM (inactive) | > 100 µM (inactive) | 55.7 µM (inactive) | 18.9 µM (inactive) | 64.1 µM (inactive) | 37.1 µM (inactive) | 45 µM (inactive) | 45.3 µM (inactive) | 40 µM (inactive)
C/C(=N\N=C(/S)N(C)C)c1cccnn1 | 1.22 µM (inactive) | 0.0796 µM (active) | 0.275 µM (active) | 0.551 µM (active) | 7.46 µM (inactive) | 0.365 µM (active) | 0.569 µM (active) | 0.794 µM (active) | 2.48 µM (inactive) | 0.726 µM (active) | 1.13 µM (inactive) | 0.74 µM (active) | 0.424 µM (active) | 0.608 µM (active) | 0.385 µM (active) | 1.29 µM (inactive) | 1.1 µM (active) | 2.03 µM (inactive) | 0.916 µM (active) | 0.564 µM (active)
